Data from ChEMBL document CHEMBL2417425, “Design and synthesis of positional isomers of 5 and 6-bromo-1-[(phenyl)sulfonyl]-2-[(4-nitrophenoxy)methyl]-1H-benzimidazoles as possible antimicrobial and antitubercular agents” (2013).
Values after ≈ are worked out from the molar mass of the structure shown.

Key:
Type in all cases: functional
[1] = tested on: Mycolicibacterium fortuitum; test: Antimycobacterial activity against Mycobacterium fortuitum ATCC 19542 assessed as growth inhibition at 0.3125 to 5 ug/mL by resazurin assay
[2] = tested on: Mycolicibacterium smegmatis; test: Antimycobacterial activity against Mycobacterium smegmatis ATCC 19420 assessed as growth inhibition at 0.3125 to 5 ug/mL by resazurin assay
[3] = tested on: Mycobacterium tuberculosis; test: Antimycobacterial activity against Mycobacterium tuberculosis H37Rv assessed as growth inhibition at 0.3125 to 5 ug/mL by resazurin assay
[4] = tested on: Mycolicibacterium fortuitum; test: Antimycobacterial activity against Mycobacterium fortuitum ATCC 19542 assessed as growth inhibition at 1 to 100 ug/mL by resazurin assay
[5] = tested on: Mycolicibacterium smegmatis; test: Antimycobacterial activity against Mycobacterium smegmatis ATCC 19420 assessed as growth inhibition at 1 to 100 ug/mL by resazurin assay
[6] = tested on: Mycobacterium tuberculosis; test: Antimycobacterial activity against Mycobacterium tuberculosis H37Rv assessed as growth inhibition at 1 to 100 ug/mL by resazurin assay; conditions: for MIC: Mycobacterium tuberculosis, H37Rv
[7] = tested on: Rhizopus; test: Antifungal activity against Rhizopus sp. assessed as growth inhibition by serial dilution method
[8] = tested on: Aspergillus flavus; test: Antifungal activity against Aspergillus flavus assessed as growth inhibition by serial dilution method
[9] = tested on: Candida albicans; test: Antifungal activity against Candida albicans assessed as growth inhibition by serial dilution method
[10] = tested on: Klebsiella pneumoniae; test: Antibacterial activity against Klebsiella pneumoniae assessed as growth inhibition by serial dilution method
[11] = tested on: Escherichia coli; test: Antibacterial activity against Escherichia coli assessed as growth inhibition by serial dilution method
[12] = tested on: Staphylococcus aureus; test: Antibacterial activity against Staphylococcus aureus assessed as growth inhibition by serial dilution method

Structure (SMILES) | MIC [1] [µg/mL] | MIC [2] [µg/mL] | MIC [3] [µg/mL] | MIC [4] [µg/mL] | MIC [5] [µg/mL] | growth inhibition (GI) [6] [%] | MIC [6] [µg/mL] | MIC [7] [µg/mL] | MIC [8] [µg/mL] | MIC [9] [µg/mL] | MIC [10] [µg/mL] | MIC [11] [µg/mL] | MIC [12] [µg/mL]
COc1ccc(S(=O)(=O)n2c(COc3ccc([N+](=O)[O-])cc3)nc3cc(Br)ccc32)c(OC)c1 | 1.25 (≈ 2.28 µM) | 1.25 (≈ 2.28 µM) | 1.25 (≈ 2.28 µM) | 10 (≈ 18.2 µM) | 1 (≈ 1.82 µM) | 90 | 1 (≈ 1.82 µM) | 256 (≈ 467 µM) | 128 (≈ 233 µM) | 128 (≈ 233 µM) | 128 (≈ 233 µM) | 256 (≈ 467 µM) | 64 (≈ 117 µM)
CO[C@H]1/C=C/O[C@@]2(C)Oc3c(C)c(O)c4c(O)c(c(/C=N/N5CCN(C)CC5)c(O)c4c3C2=O)NC(=O)/C(C)=C\C=C\[C@H](C)[C@H](O)[C@@H](C)[C@@H](O)[C@@H](C)[C@H](OC(C)=O)[C@@H]1C [RIFAMPIN] | 1.5 (≈ 1.82 µM) | 1.5 (≈ 1.82 µM) | 0.5 (≈ 0.608 µM) | 1.5 (≈ 1.82 µM) | 1.5 (≈ 1.82 µM) | 95 | 0.5 (≈ 0.608 µM) | – | – | – | – | – | –
O=[N+]([O-])c1ccc(OCc2nc3cc(Br)ccc3n2S(=O)(=O)c2ccc(Cl)cc2Cl)cc1 | – | – | 5 (≈ 8.97 µM) | > 100 | 10 (≈ 17.9 µM) | <90 | > 100 | 128 (≈ 230 µM) | 64 (≈ 115 µM) | 128 (≈ 230 µM) | 64 (≈ 115 µM) | 4 (≈ 7.18 µM) | 8 (≈ 14.4 µM)
NNC(=O)c1ccncc1 [ISONIAZID] | 12.5 (≈ 91.1 µM) | 50 (≈ 365 µM) | 0.7 (≈ 5.1 µM) | 12.5 (≈ 91.1 µM) | 50 (≈ 365 µM) | 95 | 0.7 (≈ 5.1 µM) | – | – | – | – | – | –
COc1ccc(OC)c(S(=O)(=O)n2c(COc3ccc([N+](=O)[O-])cc3)nc3cc(Br)ccc32)c1 | 1.25 (≈ 2.28 µM) | 1.25 (≈ 2.28 µM) | 1.25 (≈ 2.28 µM) | 10 (≈ 18.2 µM) | 1 (≈ 1.82 µM) | 90 | 1 (≈ 1.82 µM) | 256 (≈ 467 µM) | 64 (≈ 117 µM) | 128 (≈ 233 µM) | 256 (≈ 467 µM) | 128 (≈ 233 µM) | 128 (≈ 233 µM)
COc1ccc(S(=O)(=O)n2c(COc3ccc([N+](=O)[O-])cc3)nc3ccc(Br)cc32)c(OC)c1 | – | 2.5 (≈ 4.56 µM) | 2.5 (≈ 4.56 µM) | > 100 | 10 (≈ 18.2 µM) | <90 | 10 (≈ 18.2 µM) | 128 (≈ 233 µM) | 256 (≈ 467 µM) | > 256 | 128 (≈ 233 µM) | 256 (≈ 467 µM) | > 256
Cc1cccc(S(=O)(=O)n2c(COc3ccc([N+](=O)[O-])cc3)nc3ccc(Br)cc32)c1 | – | – | 5 (≈ 9.95 µM) | > 100 | 10 (≈ 19.9 µM) | <90 | > 100 | > 256 | > 256 | 256 (≈ 510 µM) | > 256 | 128 (≈ 255 µM) | > 256
O=[N+]([O-])c1ccc(OCc2nc3ccc(Br)cc3n2S(=O)(=O)c2ccc(Cl)cc2Cl)cc1 | – | – | – | > 100 | > 100 | 0 | > 100 | > 256 | 128 (≈ 230 µM) | > 256 | 256 (≈ 459 µM) | > 256 | 64 (≈ 115 µM)
C[C@@H]1[C@H](O)[C@@H](C)/C=C/C=C/C=C/C=C/C=C/C=C/C=C/[C@H](O[C@@H]2O[C@H](C)[C@@H](O)[C@H](N)[C@@H]2O)C[C@@H]2O[C@](O)(C[C@@H](O)C[C@@H](O)[C@H](O)CC[C@@H](O)C[C@@H](O)CC(=O)O[C@H]1C)C[C@H](O)[C@H]2C(=O)O [AMPHOTERICIN B] | – | – | – | – | – | – | – | 16 (≈ 17.3 µM) | 8 (≈ 8.66 µM) | 8 (≈ 8.66 µM) | – | – | –
N#Cc1cccc(S(=O)(=O)n2c(COc3ccc([N+](=O)[O-])cc3)nc3cc(Br)ccc32)c1 | – | – | 5 (≈ 9.74 µM) | > 100 | 10 (≈ 19.5 µM) | <90 | > 100 | 128 (≈ 249 µM) | 128 (≈ 249 µM) | 64 (≈ 125 µM) | 128 (≈ 249 µM) | 64 (≈ 125 µM) | 128 (≈ 249 µM)
COc1ccc(OC)c(S(=O)(=O)n2c(COc3ccc([N+](=O)[O-])cc3)nc3ccc(Br)cc32)c1 | – | 10 (≈ 18.2 µM) | 5 (≈ 9.12 µM) | > 100 | 10 (≈ 18.2 µM) | <90 | 10 (≈ 18.2 µM) | 128 (≈ 233 µM) | 256 (≈ 467 µM) | > 256 | 128 (≈ 233 µM) | > 256 | 256 (≈ 467 µM)
N#Cc1cccc(S(=O)(=O)n2c(COc3ccc([N+](=O)[O-])cc3)nc3ccc(Br)cc32)c1 | – | – | 5 (≈ 9.74 µM) | > 100 | 10 (≈ 19.5 µM) | <90 | > 100 | 128 (≈ 249 µM) | > 256 | 128 (≈ 249 µM) | 256 (≈ 499 µM) | > 256 | 256 (≈ 499 µM)
Cc1c(F)cccc1S(=O)(=O)n1c(COc2ccc([N+](=O)[O-])cc2)nc2ccc(Br)cc21 | – | – | 1.25 (≈ 2.4 µM) | > 100 | > 100 | <90 | 10 (≈ 19.2 µM) | 256 (≈ 492 µM) | > 256 | 256 (≈ 492 µM) | > 256 | 256 (≈ 492 µM) | > 256
Nc1ccc(OCc2nc3cc(Br)ccc3[nH]2)cc1 | – | 10 (≈ 31.4 µM) | 5 (≈ 15.7 µM) | > 100 | 10 (≈ 31.4 µM) | <90 | 10 (≈ 31.4 µM) | 256 (≈ 805 µM) | 128 (≈ 402 µM) | 64 (≈ 201 µM) | 128 (≈ 402 µM) | 128 (≈ 402 µM) | 64 (≈ 201 µM)
O=C(O)c1cn(C2CC2)c2cc(N3CCNCC3)c(F)cc2c1=O [CIPROFLOXACIN] | – | – | – | – | – | – | – | – | – | – | 16 (≈ 48.3 µM) | – | 8 (≈ 24.1 µM)
O=[N+]([O-])c1ccc(OCc2nc3ccc(Br)cc3n2S(=O)(=O)c2ccccc2Cl)cc1 | – | – | – | > 100 | > 100 | 0 | > 100 | > 256 | > 256 | 128 (≈ 245 µM) | 256 (≈ 490 µM) | > 256 | 128 (≈ 245 µM)
Cc1cccc(S(=O)(=O)n2c(COc3ccc([N+](=O)[O-])cc3)nc3cc(Br)ccc32)c1 | 10 (≈ 19.9 µM) | – | 1.25 (≈ 2.49 µM) | 10 (≈ 19.9 µM) | 10 (≈ 19.9 µM) | 90 | > 100 | 128 (≈ 255 µM) | > 256 | 64 (≈ 127 µM) | > 256 | 64 (≈ 127 µM) | 128 (≈ 255 µM)
O=[N+]([O-])c1ccc(OCc2nc3ccc(Br)cc3n2S(=O)(=O)c2cc(Cl)ccc2Cl)cc1 | 10 (≈ 17.9 µM) | – | 10 (≈ 17.9 µM) | 10 (≈ 17.9 µM) | > 100 | 90 | 10 (≈ 17.9 µM) | 128 (≈ 230 µM) | 256 (≈ 459 µM) | > 256 | 128 (≈ 230 µM) | 128 (≈ 230 µM) | 64 (≈ 115 µM)
